Reference: PubChem BioAssay AID2060502 (Molecular Pharmacology Branch, DTP, NCI, 2025)

Test system: 885724-159-R-J1-PDC complex spheroid viability
Assay: Anticancer human tumor 885724-159-R-J1-PDC patient-derived pancreatic adenocarcinoma cell line growth inhibition [GQUAD]
Conditions: for IC50: curve of first compound; for viability, T/C: stronger effect = lower value
How it was run: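 Tumor cells were grown as complex spheroids with HUVEC endothelial cells and mesenchymal stem cells as stroma. G-quadruplex stabilizers were combined with targeted agents over half-log dilutions from near the clinical Cmax, or from 10 microM.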

[1] = second compound 0.0316 µM, first compound 0.0316 µM
[2] = second compound 0.0316 µM, first compound 0.1 µM
[3] = second compound 0.0316 µM, first compound 0.316 µM
[4] = second compound 0.0316 µM, first compound 1 µM
[5] = second compound 0.0316 µM, first compound 3.16 µM
[6] = second compound 0.0316 µM, first compound 10 µM
[7] = second compound 0.1 µM, first compound 0.0316 µM
[8] = second compound 0.1 µM, first compound 0.1 µM
[9] = second compound 0.1 µM, first compound 0.316 µM
[10] = second compound 0.1 µM, first compound 1 µM
[11] = second compound 0.1 µM, first compound 3.16 µM
[12] = second compound 0.1 µM, first compound 10 µM
[13] = second compound 0.316 µM, first compound 0.0316 µM
[14] = second compound 0.316 µM, first compound 0.1 µM
[15] = second compound 0.316 µM, first compound 0.316 µM
[16] = second compound 0.316 µM, first compound 1 µM
[17] = second compound 0.316 µM, first compound 3.16 µM
[18] = second compound 0.316 µM, first compound 10 µM
[19] = second compound 1 µM, first compound 0.0316 µM
[20] = second compound 1 µM, first compound 0.1 µM
[21] = second compound 1 µM, first compound 0.316 µM
[22] = second compound 1 µM, first compound 1 µM
[23] = second compound 1 µM, first compound 3.16 µM
[24] = second compound 1 µM, first compound 10 µM
[25] = second compound 3.16 µM, first compound 0.0316 µM
[26] = second compound 3.16 µM, first compound 0.1 µM
[27] = second compound 3.16 µM, first compound 0.316 µM
[28] = second compound 3.16 µM, first compound 1 µM
[29] = second compound 3.16 µM, first compound 3.16 µM
[30] = second compound 3.16 µM, first compound 10 µM
[31] = second compound 10 µM, first compound 0.0316 µM
[32] = second compound 10 µM, first compound 0.1 µM
[33] = second compound 10 µM, first compound 0.316 µM
[34] = second compound 10 µM, first compound 1 µM
[35] = second compound 10 µM, first compound 3.16 µM
[36] = second compound 10 µM, first compound 10 µM
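Further: spheroids exposed to agents for seven days before readout.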
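Wherever viability, T/C is given: percent of vehicle control viability where 100% = DMSO wells.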

In the case of `O=C(NO)c1cnc(N2CCN(S(=O)(=O)c3ccc4ccccc4c3)CC2)nc1` + Cc1[nH]c2ccc(F)cc2c1-c1nc2c3cccnc3c3ncccc3c2[nH]1, the IC50 (second compound 0.0316 µM) is reported as 862 nM, the IC50 (second compound 0.1 µM) is reported as 841 nM and the IC50 (second compound 0.316 µM) is reported as 894 nM. For the same compound, the IC50 (second compound 1 µM) was 706 nM, the IC50 (second compound 3.16 µM) was less than 31.6 nM and the IC50 (second compound 10 µM) was 802 nM. The viability, T/C [1] was 101%, the viability, T/C [2] was 96.9% and the viability, T/C [3] was 108%. It also gave a viability, T/C [4] of 42.3%, a viability, T/C [5] of 2.03% and a viability, T/C [6] of 0.22%. The viability, T/C [7] was 101%, the viability, T/C [8] was 106% and the viability, T/C [9] was 82%. The viability, T/C [10] was 47.1%, the viability, T/C [11] was 2.38% and the viability, T/C [12] was 0.21%. For the same compound, the viability, T/C [13] was 90.7%, the viability, T/C [14] was 83% and the viability, T/C [15] was 95.6%. It also gave a viability, T/C [16] of 45.7%, a viability, T/C [17] of 3.31% and a viability, T/C [18] of 0.18%. The viability, T/C [19] was 69.2%, the viability, T/C [20] was 55.7% and the viability, T/C [21] was 94.9%. For the same compound, the viability, T/C [22] was 39.9%, the viability, T/C [23] was 2.39% and the viability, T/C [24] was 0.24%. For the same compound, the viability, T/C [25] was 14.8%, the viability, T/C [26] was 18.3% and the viability, T/C [27] was 31.6%. It also gave a viability, T/C [28] of 22.1%, a viability, T/C [29] of 1.99% and a viability, T/C [30] of 0.22%. It also gave a viability, T/C [31] of 66.2%, a viability, T/C [32] of 65.6% and a viability, T/C [33] of 74.6%. The viability, T/C [34] was 45.5%, the viability, T/C [35] was 3.66% and the viability, T/C [36] was 0.26%.

`CCCS(=O)(=O)Nc1ccc(F)c(C(=O)c2c[nH]c3ncc(-c4ccc(Cl)cc4)cc23)c1F` + Cc1[nH]c2ccc(F)cc2c1-c1nc2c3cccnc3c3ncccc3c2[nH]1 was tested, and the IC50 (second compound 0.0316 µM) was greater than 10000 nM, the IC50 (second compound 0.1 µM) was greater than 10000 nM and the IC50 (second compound 0.316 µM) was greater than 10000 nM. For the same compound, the IC50 (second compound 1 µM) was 7430 nM, the IC50 (second compound 3.16 µM) was less than 31.6 nM and the IC50 (second compound 10 µM) was 8370 nM. For the same compound, the viability, T/C [1] was 98.7%, the viability, T/C [2] was 106% and the viability, T/C [3] was 112%. The viability, T/C [4] was 130%, the viability, T/C [5] was 123% and the viability, T/C [6] was 65.2%. The viability, T/C [7] was 110%, the viability, T/C [8] was 106% and the viability, T/C [9] was 116%. The viability, T/C [10] was 124%, the viability, T/C [11] was 125% and the viability, T/C [12] was 65.6%. For the same compound, the viability, T/C [13] was 97.6%, the viability, T/C [14] was 89.8% and the viability, T/C [15] was 90%. It also gave a viability, T/C [16] of 107%, a viability, T/C [17] of 130% and a viability, T/C [18] of 59.8%. The viability, T/C [19] was 71.8%, the viability, T/C [20] was 60.4% and the viability, T/C [21] was 88.2%. For the same compound, the viability, T/C [22] was 90.8%, the viability, T/C [23] was 102% and the viability, T/C [24] was 38.7%. It also gave a viability, T/C [25] of 17%, a viability, T/C [26] of 17.7% and a viability, T/C [27] of 14.4%. For the same compound, the viability, T/C [28] was 18.3%, the viability, T/C [29] was 13.9% and the viability, T/C [30] was 4.94%. For the same compound, the viability, T/C [31] was 65.9%, the viability, T/C [32] was 73.4% and the viability, T/C [33] was 77.7%. The viability, T/C [34] was 93.8%, the viability, T/C [35] was 110% and the viability, T/C [36] was 43.6%.

`CC1COCCN1c1cc(C2(O)CC3CCC(C2)O3)c2cnn(-c3ccn[nH]3)c2n1` (stereo unspecified) + Cc1cnc(CNC(=O)c2c(=O)c3ccc(N4CCCN(C)CC4)nc3n3c2sc2ccccc23)cn1 was tested, and the IC50 (second compound 0.0316 µM) was 1120 nM, the IC50 (second compound 0.1 µM) was 1140 nM and the IC50 (second compound 0.316 µM) was 986 nM. It also gave an IC50 (second compound 1 µM) of 293 nM, an IC50 (second compound 3.16 µM) of 184 nM and an IC50 (second compound 10 µM) of 196 nM. The viability, T/C [1] was 96.9%, the viability, T/C [2] was 71% and the viability, T/C [3] was 63.3%. For the same compound, the viability, T/C [4] was 52.9%, the viability, T/C [5] was 42.7% and the viability, T/C [6] was 30.8%. The viability, T/C [7] was 91.1%, the viability, T/C [8] was 83.7% and the viability, T/C [9] was 68.3%. It also gave a viability, T/C [10] of 51.4%, a viability, T/C [11] of 37.8% and a viability, T/C [12] of 27.9%. The viability, T/C [13] was 83.8%, the viability, T/C [14] was 81.5% and the viability, T/C [15] was 68.5%. It also gave a viability, T/C [16] of 48%, a viability, T/C [17] of 35% and a viability, T/C [18] of 22.4%. It also gave a viability, T/C [19] of 79.7%, a viability, T/C [20] of 59.3% and a viability, T/C [21] of 48.7%. The viability, T/C [22] was 39.1%, the viability, T/C [23] was 27.5% and the viability, T/C [24] was 17.9%. For the same compound, the viability, T/C [25] was 72.1%, the viability, T/C [26] was 56.5% and the viability, T/C [27] was 43.8%. The viability, T/C [28] was 32.4%, the viability, T/C [29] was 19% and the viability, T/C [30] was 13.8%. For the same compound, the viability, T/C [31] was 61.5%, the viability, T/C [32] was 59.2% and the viability, T/C [33] was 43.4%. The viability, T/C [34] was 30.1%, the viability, T/C [35] was 19.1% and the viability, T/C [36] was 12.4%.
